Earlier results on one compound are cited in patent US11944682B2, “Aggregation induced emission-bacteriophage bioconjugates” (priority 2020, dated 2024).

For the data set the following is noted: used as standard.

Turning to `O=C1OC2(c3cc(I)c(O)c(I)c3Oc3c2cc(I)c(O)c3I)c2c(Cl)c(Cl)c(Cl)c(Cl)c21` [Rose Bengal, Rose Bengal lactone], the “quantum yield for 1O2 (standard)” value was ~75%.
